Literature values in publication PMC2074590 (British Journal of Cancer, 1996).

How the values were obtained:
[1] = tested on: breast cancer cells; set-up: method as in Wakeling and Bowler, 1987, 1988; settings: ref Wakeling and Bowler, 1987, 1988; cited from earlier work
[2] = ref Willemse et al., 1990; cited from earlier work
[3] = tested on: Ki67, ER, PgR, pS2 in primary breast cancer; settings: similar clinical experiments; ref Howell et al., 1988; Roberston et al., 1991; Clarke et al., 1993; Nicholson et al., 1994; cited from earlier work
[4] = tested on: advanced breast cancer; settings: ref Cole et al., 1971, Patterson et al., 1981; cited from earlier work

In the case of `CCCCN(C)C(=O)CCCCCCCCCC[C@@H]1Cc2cc(O)ccc2[C@H]2CC[C@]3(C)[C@@H](O)CC[C@H]3[C@H]12` [ICI 164384, reference compound], the “Potency as inhibitor of cell growth in vitro relative to tamoxifen” value [1] is listed as “up to two orders of magnitude more potent than tamoxifen”.
In the case of `CC(=O)O[C@]1(C(C)=O)CC[C@H]2[C@@H]3C=C(C)C4=CC(=O)CC[C@]4(C)[C@H]3CC[C@@]21C` [megestrol acetate], the “Patients with weight gain of > 5% of body weight” value [2] is given as 25%.
In the case of `CC/C(=C(\c1ccccc1)c1ccc(OCCN(C)C)cc1)c1ccccc1` [tamoxifen, reference compound], the ER expression [3] is listed as “no change in ER expression”, the PgR expression [3] is listed as “slightly increased PgR expression” and the “Median duration of remission” value [4] is listed as “about 18 months”.
